Test results reported in US20100160369A1, “S1P1 Agonists and Methods of Making And Using” (EXELIXIS, INC., priority 2008, published 2010).
Like-named read-outs stand apart in the source and are kept apart here.

Biological target: S1P1 (Homo sapiens, UniProt P21453)
Assay: CNG cAMP Assay (Assay 1)
Assay type: cell-based
Parameters: host or cells: HEK293 cells expressing the CNG channel
Protocol: Frozen HEK293 cells expressing the CNG channel and S1P1 (BD Biosciences, San Jose, Calif.) were thawed and plated into the wells of a black, clear bottom, 384-well CellBind plate (Corning, Corning, N.Y.) at 14,000 cells per well. HEK293 cells expressing the CNG channel and CB1 (BD Biosciences) were cultured and plated under the same conditions. The cells were incubated for 16 h at 37° C. in complete DMEM medium (Invitrogen Carlsbad, Calif.) containing 10% FBS (HyClone Logan, Utah), 250 μg/mL geneticin (Invitrogen), and 1 μg/mL puromycin (Sigma-Aldrich, St. Louis, Mo.). A membrane potential dye (BD Biosciences) was added and the plates were incubated for 2-2.5 h at room temperature.
Test compounds were tested at maximum concentrations of 10 μM. Compounds were diluted in DMSO (10 concentration points, 3-fold each) and added to the assay plate at final DMSO concentrations of 1.8%. For each compound, there were duplicate assay plates and each assay plate had duplicate wells per concentration point. Test compounds were added to the cells in a DPBS solution containing 25 μM Ro 20-1724 (Sigma-Aldrich), 500 nM of the A2b receptor agonist NECA (Sigma-Aldrich) and 10 nM (EC95) of S1P (Avanti Alabaster, Ala.) and incubated for 90 min. The assay plate was read before compound addition (T0) and after the 90 min incubation (T90) using an EnVision plate reader (PerkinElmer, Waltham, Mass.) at an excitation wavelength of 350 nm and an emission wavelength of 590 nm. The T90/T0 ratio was determined for each concentration of the test compounds. The percent agonist activity was determined as [(test compound−DMSO alone control)/(NECA alone control−DMSO alone control)*100]. The percent activities were plotted against compound concentration to determine EC50 using XLFit (IDBS, Alameda, Calif.). The control used for calculating rEC50 in the S1P1 CNG agonist assay was DMSO.
Assay 1 is the CNG cAMP Assay as described in Biological Example 1. Assay 2a and 2b are the Tango™ β-arrestin Recruitment Assay in HEK293 and U2OS cells, respectively, as described in Biological Example 2. Assay 3a is the hS1P1R GTPγS Binding Assay as described in Biological Example 3. Assay 3b is the GTP-Eu Binding Assay as described in Biological Example 3. EC50's were measured unless otherwise noted. […] In the table, “nt” means the Compound was not tested and “no” means the compound was tested but had no measurable activity under the assay conditions employed.

[1] = footnote 1: Relative EC50 was measured, read-out: Assay 1 Relative EC50

S1P1, sequence (P21453 whole entry): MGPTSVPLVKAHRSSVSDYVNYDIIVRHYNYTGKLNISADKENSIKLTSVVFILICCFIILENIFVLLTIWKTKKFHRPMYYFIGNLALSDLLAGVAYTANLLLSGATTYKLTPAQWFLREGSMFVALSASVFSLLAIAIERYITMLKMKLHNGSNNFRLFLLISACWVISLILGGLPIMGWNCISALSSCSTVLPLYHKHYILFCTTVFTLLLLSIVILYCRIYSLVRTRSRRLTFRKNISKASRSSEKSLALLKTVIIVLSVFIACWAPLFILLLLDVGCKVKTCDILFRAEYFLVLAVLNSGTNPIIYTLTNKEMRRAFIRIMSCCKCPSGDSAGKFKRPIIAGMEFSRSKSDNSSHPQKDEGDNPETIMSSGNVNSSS

EC50 [1]	EC50 (read-out: Assay 1 EC50)	SMILES
1000 to 5000 nM		O=C(O)Cc1ccc(-c2noc(-c3cn4cc(C(F)(F)F)cc(Cl)c4n3)n2)c(Cl)c1 [Example 133, (3-chloro-4-{5-[8-chloro-6-(trifluoromethyl)imidazo[1,2-a]pyridin-2-yl]-1,2,4-oxadiazol-3-yl}phenyl)acetic acid]
	500 to 1000 nM	O=c1nc(-c2ccc(-c3noc(-c4cn5cc(C(F)(F)F)cc(Cl)c5n4)n3)c(Cl)c2)[nH]o1 [Example 134, 3-(3-chloro-4-{5-[8-chloro-6-(trifluoromethyl)imidazo[1,2-a]pyridin-2-yl]-1,2,4-oxadiazol-3-yl}phenyl)-1,2,4-oxadiazol-5(2H)-one]
	100 to 500 nM	NC(=O)C(CC(=O)O)c1ccc(-c2noc(-c3cn4cc(C(F)(F)F)cc(Cl)c4n3)n2)c(Cl)c1 (stereo not drawn) [Example 135, 4-amino-3-(3-chloro-4-{5-[8-chloro-6-(trifluoromethyl)imidazo[1,2-a]pyridin-2-yl]-1,2,4-oxadiazol-3-yl}phenyl)-4-oxobutanoic acid]
1000 to 5000 nM		CCNC(CC(=O)O)c1ccc(-c2noc(-c3cn4cc(C(F)(F)F)cc(Cl)c4n3)n2)c(Cl)c1 (stereo not drawn) [Example 137, 3-(3-chloro-4-{5-[8-chloro-6-(trifluoromethyl)imidazo[1,2-a]pyridin-2-yl]-1,2,4-oxadiazol-3-yl}phenyl)-3-(ethylamino)propanoic acid]
	≤ 100 nM	CS(=O)(=O)CCc1ccc(-c2noc(-c3cn4cc(C(F)(F)F)cc(Cl)c4n3)n2)c(Cl)c1 [Example 140, 8-chloro-2-(3-{2-chloro-4-[2-(methylsulfonyl)ethyl]phenyl}-1,2,4-oxadiazol-5-yl)-6-(trifluoromethyl)imidazo[1,2-a]pyridine]
	500 to 1000 nM	FC(F)(F)c1cccc(-c2noc(-c3cn4cc(C(F)(F)F)cc(Cl)c4n3)n2)c1 [Example 143, 8-chloro-6-(trifluoromethyl)-2-{3-[3-(trifluoromethyl)phenyl]-1,2,4-oxadiazol-5-yl}imidazo[1,2-a]pyridine]
	100 to 500 nM	OCCN1CCC(Oc2cc(Cl)c(-c3noc(-c4cn5cc(C(F)(F)F)cc(Cl)c5n4)n3)cc2F)C1 (stereo not drawn) [Example 144, 2-{3-[(5-chloro-4-{5-[8-chloro-6-(trifluoromethyl)imidazo[1,2-a]pyridin-2-yl]-1,2,4-oxadiazol-3-yl}-2-fluorophenyl)oxy]pyrrolidin-1-yl}ethanol]
	500 to 1000 nM	Fc1ccc(-c2noc(-c3cn4cc(C(F)(F)F)cc(Cl)c4n3)n2)c(F)c1 [Example 146, 8-chloro-2-[3-(2,4-difluorophenyl)-1,2,4-oxadiazol-5-yl]-6-(trifluoromethyl)imidazo[1,2-a]pyridine]
	100 to 500 nM	Fc1cccc(Cl)c1-c1noc(-c2cn3cc(C(F)(F)F)cc(Br)c3n2)n1 [Example 147, 8-bromo-2-[3-(2-chloro-6-fluorophenyl)-1,2,4-oxadiazol-5-yl]-6-(trifluoromethyl)imidazo[1,2-a]pyridine]
	≤ 100 nM	CS(=O)(=O)c1cc(Cl)c2nc(-c3nc(-c4cc(F)c(CCC(=O)O)cc4Cl)no3)cn2c1 [Example 148, 3-(5-chloro-4-{5-[8-chloro-6-(methylsulfonyl)imidazo[1,2-a]pyridin-2-yl]-1,2,4-oxadiazol-3-yl}-2-fluorophenyl)propanoic acid]
	100 to 500 nM	FC(F)(F)c1cc(Cl)c2nc(-c3nc(-c4ccc5[nH]ccc5c4)no3)cn2c1 [Example 151, 8-chloro-2-[3-(1H-indol-5-yl)-1,2,4-oxadiazol-5-yl]-6-(trifluoromethyl)imidazo[1,2-a]pyridine]
	≤ 100 nM	Cc1cc(F)ccc1-c1noc(-c2cn3cc(C(F)(F)F)cc(Cl)c3n2)n1 [Example 152, 8-chloro-2-[3-(4-fluoro-2-methylphenyl)-1,2,4-oxadiazol-5-yl]-6-(trifluoromethyl)imidazo[1,2-a]pyridine]
	100 to 500 nM	Fc1cccc(-c2noc(-c3cn4cc(C(F)(F)F)cc(Cl)c4n3)n2)c1Cl [Example 157, 8-chloro-2-[3-(2-chloro-3-fluorophenyl)-1,2,4-oxadiazol-5-yl]-6-(trifluoromethyl)imidazo[1,2-a]pyridine]
1000 to 5000 nM		O=C(O)c1cc2cc(-c3noc(-c4cn5cc(C(F)(F)F)cc(Cl)c5n4)n3)ccc2o1 [Example 158, 5-{5-[8-chloro-6-(trifluoromethyl)imidazo[1,2-a]pyridin-2-yl]-1,2,4-oxadiazol-3-yl}-1-benzofuran-2-carboxylic acid]
	≤ 100 nM	FC(F)(F)c1cc(Cl)c2nc(-c3nc(-c4cccc5[nH]ccc45)no3)cn2c1 [Example 162, 8-chloro-2-[3-(1H-indol-4-yl)-1,2,4-oxadiazol-5-yl]-6-(trifluoromethyl)imidazo[1,2-a]pyridine]
	100 to 500 nM	Fc1cccc(Cl)c1-c1noc(-c2cn3cc(C(F)(F)F)cc(Cl)c3n2)n1 [Example 163, 8-chloro-2-[3-(2-chloro-6-fluorophenyl)-1,2,4-oxadiazol-5-yl]-6-(trifluoromethyl)imidazo[1,2-a]pyridine]
	100 to 500 nM	FC(F)(F)c1cc(Cl)c2nc(-c3nc(-c4ccc5[nH]cnc5c4)no3)cn2c1 [Example 164, 5-{5-[8-chloro-6-(trifluoromethyl)imidazo[1,2-a]pyridin-2-yl]-1,2,4-oxadiazol-3-yl}-1H-benzimidazole]
	100 to 500 nM	FC(F)(F)c1cc(Cl)c2nc(-c3nc(-c4ccccc4C(F)(F)F)no3)cn2c1 [Example 165, 8-chloro-6-(trifluoromethyl)-2-{3-[2-(trifluoromethyl)phenyl]-1,2,4-oxadiazol-5-yl}imidazo[1,2-a]pyridine]
	≤ 100 nM	Fc1ccc(-c2noc(-c3cn4cc(C(F)(F)F)cc(Cl)c4n3)n2)c(Br)c1 [Example 168, 2-[3-(2-bromo-4-fluorophenyl)-1,2,4-oxadiazol-5-yl]-8-chloro-6-(trifluoromethyl)imidazo[1,2-a]pyridine]
5000 to 10000 nM		O=C(O)c1cc2cc(-c3noc(-c4cn5cc(C(F)(F)F)cc(Cl)c5n4)n3)ccc2[nH]1 [Example 169, 5-{5-[8-chloro-6-(trifluoromethyl)imidazo[1,2-a]pyridin-2-yl]-1,2,4-oxadiazol-3-yl}-1H-indole-2-carboxylic acid]
	≤ 100 nM	CC(CC(N)=O)c1ccc(-c2noc(-c3cn4cc(C(F)(F)F)cc(Cl)c4n3)n2)c(Cl)c1 (stereo not drawn) [Example 170, 3-(3-chloro-4-{5-[8-chloro-6-(trifluoromethyl)imidazo[1,2-a]pyridin-2-yl]-1,2,4-oxadiazol-3-yl}phenyl)butanamide]
	≤ 100 nM	NC(=O)Cn1ccc2c(-c3noc(-c4cn5cc(C(F)(F)F)cc(Cl)c5n4)n3)cccc21 [Example 174, 2-(4-{5-[8-chloro-6-(trifluoromethyl)imidazo[1,2-a]pyridin-2-yl]-1,2,4-oxadiazol-3-yl}-1H-indol-1-yl)acetamide]
	≤ 100 nM	O=C(Cn1ccc2c(-c3noc(-c4cn5cc(C(F)(F)F)cc(Cl)c5n4)n3)cccc21)NCCO [Example 175, 2-(4-{5-[8-chloro-6-(trifluoromethyl)imidazo[1,2-a]pyridin-2-yl]-1,2,4-oxadiazol-3-yl}-1H-indol-1-yl)-N-(2-hydroxyethyl)acetamide]
	500 to 1000 nM	FC(F)(F)c1ccc(-c2noc(-c3cn4cc(C(F)(F)F)cc(Cl)c4n3)n2)c(Cl)c1 [Example 183, 8-chloro-2-{3-[2-chloro-4-(trifluoromethyl)phenyl]-1,2,4-oxadiazol-5-yl}-6-(trifluoromethyl)imidazo[1,2-a]pyridine]
	100 to 500 nM	CC(CC(=O)O)c1ccc(-c2noc(-c3cn4cc(C(F)(F)F)cc(Cl)c4n3)n2)c(F)c1 (stereo not drawn) [Example 186, 3-(4-{5-[8-chloro-6-(trifluoromethyl)imidazo[1,2-a]pyridin-2-yl]-1,2,4-oxadiazol-3-yl}-3-fluorophenyl)butanoic acid]
	≤ 100 nM	Oc1ccc(-c2noc(-c3cn4cc(C(F)(F)F)cc(Cl)c4n3)n2)c(Cl)c1 [Example 187, 3-chloro-4-{5-[8-chloro-6-(trifluoromethyl)imidazo[1,2-a]pyridin-2-yl]-1,2,4-oxadiazol-3-yl}phenol]
	100 to 500 nM	N[C@@H](COc1ccc(-c2noc(-c3cn4cc(C(F)(F)F)cc(Cl)c4n3)n2)c(Cl)c1)C(=O)O [Example 188, O-(3-chloro-4-{5-[8-chloro-6-(trifluoromethyl)imidazo[1,2-a]pyridin-2-yl]-1,2,4-oxadiazol-3-yl}phenyl)serine]
